From patent US8541395B2 (priority 2009, dated 2013)

What was measured:
HCN2 = target: T1, HCN2 (Homo sapiens, UniProt Q9UL51); test: Patch clamp assay, ion channel inhibition; conditions: read-out: Mean % inhibition (positive control)
T1 sequence (Q9UL51 1-889): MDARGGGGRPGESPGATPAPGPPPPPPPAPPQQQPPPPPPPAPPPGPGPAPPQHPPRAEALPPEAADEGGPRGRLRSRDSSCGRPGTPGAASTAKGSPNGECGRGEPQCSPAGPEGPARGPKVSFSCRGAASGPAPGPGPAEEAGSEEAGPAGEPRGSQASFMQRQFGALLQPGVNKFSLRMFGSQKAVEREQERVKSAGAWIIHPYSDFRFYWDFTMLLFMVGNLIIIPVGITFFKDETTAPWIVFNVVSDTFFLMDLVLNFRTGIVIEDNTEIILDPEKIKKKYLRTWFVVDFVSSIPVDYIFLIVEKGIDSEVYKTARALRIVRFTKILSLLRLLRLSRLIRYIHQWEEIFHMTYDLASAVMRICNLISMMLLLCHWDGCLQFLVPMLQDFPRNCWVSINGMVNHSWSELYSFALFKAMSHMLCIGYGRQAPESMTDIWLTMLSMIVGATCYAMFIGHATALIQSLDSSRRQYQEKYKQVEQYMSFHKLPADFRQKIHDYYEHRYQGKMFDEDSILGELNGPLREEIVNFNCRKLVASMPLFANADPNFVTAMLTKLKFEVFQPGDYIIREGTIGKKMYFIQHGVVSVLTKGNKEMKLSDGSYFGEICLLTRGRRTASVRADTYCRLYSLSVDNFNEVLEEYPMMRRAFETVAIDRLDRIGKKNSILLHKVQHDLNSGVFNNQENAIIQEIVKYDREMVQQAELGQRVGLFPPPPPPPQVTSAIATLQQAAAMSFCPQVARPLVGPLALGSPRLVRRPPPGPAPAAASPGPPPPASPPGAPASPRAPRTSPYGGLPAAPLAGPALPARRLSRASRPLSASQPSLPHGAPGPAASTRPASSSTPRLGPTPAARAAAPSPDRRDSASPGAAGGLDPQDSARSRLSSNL
Experimental: (§1) The studies were conducted according to the conventional procedures.
(§2) The exposure duration of each channel was 5 minutes. […] Any left current after exposure to this dose was digitally subtracted to eliminate the contribution of any endogenous current.

HCN4 = target: T2, HCN4 (Homo sapiens, UniProt Q9Y3Q4); test: Patch clamp assay, ion channel inhibition; conditions: read-out: Mean % inhibition (positive control)
T2 sequence (Q9Y3Q4 1-1203): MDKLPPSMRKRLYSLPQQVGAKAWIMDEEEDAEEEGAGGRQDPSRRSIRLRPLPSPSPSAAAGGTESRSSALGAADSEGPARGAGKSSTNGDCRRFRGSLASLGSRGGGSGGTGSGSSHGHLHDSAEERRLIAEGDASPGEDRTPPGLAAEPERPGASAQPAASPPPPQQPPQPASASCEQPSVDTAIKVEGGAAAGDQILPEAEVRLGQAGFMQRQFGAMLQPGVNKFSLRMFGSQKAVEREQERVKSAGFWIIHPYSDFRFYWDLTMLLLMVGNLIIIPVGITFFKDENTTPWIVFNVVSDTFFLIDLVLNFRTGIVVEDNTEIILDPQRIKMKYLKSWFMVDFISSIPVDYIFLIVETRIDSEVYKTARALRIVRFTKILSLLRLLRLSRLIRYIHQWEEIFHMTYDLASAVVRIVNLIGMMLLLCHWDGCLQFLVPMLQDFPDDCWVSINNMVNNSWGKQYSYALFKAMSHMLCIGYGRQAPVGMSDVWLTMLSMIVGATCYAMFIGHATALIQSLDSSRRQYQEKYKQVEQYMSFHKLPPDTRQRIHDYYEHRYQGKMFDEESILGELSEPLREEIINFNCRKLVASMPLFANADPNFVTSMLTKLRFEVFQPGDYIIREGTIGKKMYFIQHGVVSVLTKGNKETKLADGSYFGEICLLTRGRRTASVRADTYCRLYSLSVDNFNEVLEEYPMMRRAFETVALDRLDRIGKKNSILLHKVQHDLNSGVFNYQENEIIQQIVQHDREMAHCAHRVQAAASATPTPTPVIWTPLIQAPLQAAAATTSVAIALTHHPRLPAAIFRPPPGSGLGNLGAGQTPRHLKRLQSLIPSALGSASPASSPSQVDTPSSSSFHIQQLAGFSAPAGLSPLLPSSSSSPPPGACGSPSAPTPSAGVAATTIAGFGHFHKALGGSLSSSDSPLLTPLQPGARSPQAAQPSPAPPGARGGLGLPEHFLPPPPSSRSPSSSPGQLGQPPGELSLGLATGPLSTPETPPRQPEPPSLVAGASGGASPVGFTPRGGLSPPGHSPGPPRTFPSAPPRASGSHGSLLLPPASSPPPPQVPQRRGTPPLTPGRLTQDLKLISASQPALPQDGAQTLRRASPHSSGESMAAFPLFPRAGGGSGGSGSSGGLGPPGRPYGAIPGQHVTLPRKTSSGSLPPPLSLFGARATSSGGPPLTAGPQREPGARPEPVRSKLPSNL
Experimental: as §1, §2

COc1ccc(CCN(C)CCCN2CCc3cc(OC)c(OC)cc3CC2=O)cc1OC [Zatebradine]
inhibition at 100 µM (HCN2): 96.1% | inhibition at 10 µM (HCN4): 88.3%
